Assay results: publication PMC4580987, “Catalytic site inhibition of insulin-degrading enzyme by a small molecule induces glucose intolerance in mice” (Nature Communications, 2015)

Tests used:
hIDE [1] = target: T1, hIDE (Homo sapiens, UniProt P14735); experiment: In vitro hIDE inhibition of Aβ16–23-based substrate hydrolysis; format: biochemical; conditions: for inhibition at 100 µM: 100 µM (footnote c)
T1 construct: made in house
T1 sequence (P14735 1-1019): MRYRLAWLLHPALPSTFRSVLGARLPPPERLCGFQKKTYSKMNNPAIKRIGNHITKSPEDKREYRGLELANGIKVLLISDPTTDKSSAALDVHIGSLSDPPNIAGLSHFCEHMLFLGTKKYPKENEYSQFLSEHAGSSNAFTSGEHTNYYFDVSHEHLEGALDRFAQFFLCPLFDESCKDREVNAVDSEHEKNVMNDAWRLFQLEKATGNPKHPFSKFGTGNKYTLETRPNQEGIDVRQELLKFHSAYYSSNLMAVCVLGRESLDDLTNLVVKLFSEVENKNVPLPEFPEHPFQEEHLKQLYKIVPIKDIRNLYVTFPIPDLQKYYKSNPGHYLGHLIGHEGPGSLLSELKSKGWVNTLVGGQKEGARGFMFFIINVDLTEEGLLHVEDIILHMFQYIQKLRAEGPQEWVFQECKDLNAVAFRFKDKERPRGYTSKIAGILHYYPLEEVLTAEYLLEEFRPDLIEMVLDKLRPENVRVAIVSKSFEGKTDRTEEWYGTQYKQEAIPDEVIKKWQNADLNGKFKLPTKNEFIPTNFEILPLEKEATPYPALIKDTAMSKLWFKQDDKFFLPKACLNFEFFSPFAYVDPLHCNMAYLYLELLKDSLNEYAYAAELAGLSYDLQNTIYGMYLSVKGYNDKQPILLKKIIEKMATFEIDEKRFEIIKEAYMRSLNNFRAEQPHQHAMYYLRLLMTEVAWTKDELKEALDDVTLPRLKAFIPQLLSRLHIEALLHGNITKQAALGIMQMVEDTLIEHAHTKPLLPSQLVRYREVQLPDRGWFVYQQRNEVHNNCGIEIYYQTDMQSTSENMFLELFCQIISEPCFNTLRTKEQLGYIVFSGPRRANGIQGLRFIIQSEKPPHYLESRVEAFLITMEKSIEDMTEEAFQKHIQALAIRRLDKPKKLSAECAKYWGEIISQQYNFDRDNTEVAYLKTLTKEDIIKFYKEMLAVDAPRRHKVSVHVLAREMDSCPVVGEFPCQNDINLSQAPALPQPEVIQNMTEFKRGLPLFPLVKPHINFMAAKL
Procedure: In vitro IDE activity was measured with a quenched substrate […]. Human recombinant IDE was cloned and purified as previously described. […] All measurements were carried out as 8-point dose response curves and reported as the average of at least three independent measurements. […] Data analysis was performed using Xlfit v 5.0 and GraphPad Prism v 4.0. Nonlinear curve fitting and statistical analysis was done using built-in functions.

hIDE [2] = target: T1, hIDE; experiment: In vitro hIDE inhibition of insulin hydrolysis; format: biochemical; conditions: for IC50: full insulin substrate, value (CI 95%), mean of 3 to 10 experiments, read-out: IC50 insulin hydrolysis
Procedure: The enzymatic activity of hIDE was assayed quantifying the amount of insulin (Actrapid) at the end of the reaction. The quantity of insulin was determined using a Luminex kit (HMHMAG-34K, Millipore). 20 μl of WT IDE in Hepes buffer (50 mM with 100 mM NaCl, pH 7.4) at 1 μg ml^−1 were pre-incubated 10 min at ambient temperature with 20 μl of test compound or vehicle in 96-well microtiter plates (dark, non-binding surface). The reaction was then started by the addition of 40 μl of insulin at 40 nM. The final concentration of hIDE and substrate was 0.25 μg ml^−1 and 20 nM, respectively. Incubations were performed at ambient temperature for 10 min. The reaction was then stopped by addition of 80 μl of 200 mM EDTA. The samples were diluted by a factor of 3, and 15 μl were transferred to 96-well microtiter plates (dark, clear bottom, non-binding surface) containing 15 μl of assay buffer (from Luminex Kit). Fifteen microlitre of insulin magnetic beads were added. Incubation was performed during 16–18 h at 4 °C under agitation. Wells were washed three times and 30 μl of hormone panel antibodies were added. The samples were incubated 30 min at ambient temperature under agitation. 30 μl of strepdavidin-phycoerythrin were added. Incubation was performed 30 min at ambient temperature under agitation. Wells were washed three times and 80 μl of drive fluid were added. The plate was then read with the MagPix apparatus. Data analysis was performed using Xlfit v 5.0 and GraphPad Prism v 4.0. Nonlinear curve fitting and statistical analysis was done using equation 1: […]
where A is minimum value of y; B is range of y; C is the IC50 value and D is slope factor.

[3] = system: human SY5Y neuroblastoma cells; experiment: Aβ1–40 secretion by differentiated SH-SY5Y cells (ELISA); format: cell-based; conditions: 10 μM and 30 μM, 48 h
Procedure: The human neuroblastoma cell lines SH-SY5Y were provided from ATCC (cat. no. crl2266) with a Certificate of Analysis and not checked in the lab for mycoplasma contamination. […] SH-SY5Y were seeded in a 96-well plate at 200,000 cells per cm^2. […] Differentiated cells were then incubated with compounds at 10 μM and 30 μM in presence of 0.1% DMSO.

mice = system: mice; parameters: method as in Maianti et al, Nature 2014; conditions: ref Maianti et al, Nature 2014, cited from earlier work
hIDE [4] = target: T1, hIDE; experiment: 19F NMR ligand-observed interaction with the enzyme; format: binding; conditions: 5 μM enzyme
Procedure: […] The carrier frequency was set at −100 p.p.m. with a spectral window of 40 ppm, and 4,024 scans were recorded per sample, except for the 6.25 μM sample for which 12,288 scans were recorded.

Row | Compound | IC50 (hIDE [1]) [µM] | IC50 (hIDE [2]) [µM] | further results
1 | O=C(C[C@@H](Cc1ccc2ccccc2c1)n1nncc1CNC(=O)C1CCCCC1)NO [Compound 17] | > 100 | 30 | inhibition at 100 µM (hIDE [1]): < 10%
2 | Cc1ccc(C(=O)NCc2cn(C(CC(=O)NO)Cc3ccccc3)nn2)cc1 (centres unmarked) [Compound 10] | > 100 | 6.1 | inhibition at 100 µM (hIDE [1]): < 10%; fold less active than 1 against purified IDE (hIDE [2]; relative to compound 1): 100 fold; Aβ1–40 in culture supernatants [3]: had no effect
3 | O=C(O)CN(CCN(CC(=O)O)CC(=O)O)CC(=O)O [EDTA, reference compound] |  |  | inhibition of IDE by reference inhibitor (hIDE [1]; 2 mM): 100%
4 | O=C(O)C[C@@H](Cc1ccc2ccccc2c1)n1cc(CNC(=O)c2ccc(F)cc2)nn1 [Compound 14] | > 100 | 30 | 
5 | COc1ccc(C(=O)NCc2cn([C@@H](CC(=O)NO)Cc3ccc4ccccc4c3)nn2)cc1 [Compound 4] | 4.5 | 3.4 | melting point: 178.3 to 179.6 °C
6 | O=C(C[C@@H](Cc1ccc2ccccc2c1)n1cc(CNC(=O)c2ccccc2)nn1)NO [Compound 2] | 0.7 | 0.51 | melting point: 192.8 to 194 °C
7 | Cc1ccc(C(=O)NCc2cn([C@@H](CC(=O)NO)Cc3ccc4ccccc4c3)nn2)cc1 [Compound 3] | 2.7 | 6.7 | melting point: 181.7 to 182.6 °C
8 | O=C(C[C@@H](Cc1ccc2ccccc2c1)n1cc(CNC(=O)C2CCCCC2)nn1)NO [Compound 5] | 0.8 | 0.44 | melting point: 176.6 to 177.9 °C
9 | O=C(C[C@@H](Cc1ccc2ccccc2c1)c1nc(CNC(=O)c2ccc(F)cc2)no1)NO [Compound 12] | 29 | 6.5 | 
10 | O=C(CC(Cc1ccccc1)n1cc(CNC(=O)c2ccc(F)cc2)nn1)NO (centres unmarked) [Compound 19] | 80 | > 100 | inhibition at 300 µM (hIDE [2]; 300 µM (footnote d)): 50%
11 | NCCCC[C@@H]1NC(=O)/C=C/C(=O)N[C@H](C(N)=O)CCCCNC(=O)[C@@H](Cc2ccc(C(=O)c3ccccc3)cc2)NC(=O)[C@H](CC2CCCCC2)NC1=O [6bK] |  |  | glucose tolerance in OGTT, 6bK (mice; IDE dependant, GLP-1 dependant, insulin driven): Improves glucose tolerance in OGTT; glucose tolerance in IPGTT, 6bK (mice; IDE dependant): Impairs glucose tolerance in IPGTT; gluconeogenesis in a pyruvate tolerance test, 6bK (mice): Lowers gluconeogenesis; insulin action in vivo (ITT), 6bK (mice): Augments insulin action in vivo
12 | O=C(C[C@@H](Cc1ccc2ccccc2c1)n1nncc1CNC(=O)c1ccc(F)cc1)NO [Compound 16] | > 100 | 12.1 | inhibition at 100 µM (hIDE [1]): < 10%; 19F NMR signal in the presence of enzyme at 2:1 or 1:1 compound:enzyme ratio (hIDE [4]): signal intensity remains detectable
13 | Cc1ccc(CC(=O)NCc2cn([C@@H](CC(=O)NO)Cc3ccc4ccccc4c3)nn2)cc1 [Compound 7] | 12 | 2.3 | 
14 | O=C(C[C@@H](Cc1ccc2ccccc2c1)n1cc(CNC(=O)Cc2ccccc2)nn1)NO [Compound 6] | 3.2 | 0.74 | 
15 | O=C(C[C@@H](Cc1ccc2ccccc2c1)n1cc(CNS(=O)(=O)c2ccc(F)cc2)nn1)NO [Compound 9] | 5.7 | 6 | melting point: 157.1 to 158.7 °C
16 | O=C(C[C@H](Cc1ccc2ccccc2c1)n1cc(CNC(=O)c2ccc(F)cc2)nn1)NO [Compound 15] | 2.8 | 2 | 
17 | O=C(CC(Cc1ccc2ccccc2c1)c1nc(CNC(=O)c2ccccc2)no1)NO (centres unmarked) [Compound 11] | 74 | 9.6 | 
